Where two headings read alike, the source gives them in different places.

For assay [1], the target named is T1, full-length EI (Escherichia coli, UniProt P08839). Conditions: read-out: Km,0 (Km in the absence of inhibitor); PEP as substrate of EI; kept fixed to its literature value, no reference given; cited from earlier work.
The target of assay [2] is T2, EIC domain of EI (Escherichia coli, UniProt P08839).
T2 construct: made in house
Kind of assay: CSP-based NMR titration experiments (equilibrium dissociation constant). It counts as binding, E. coli. An excerpt: The affinity of the newly discovered EI ligands was investigated by acquiring CSP-based, NMR titration experiments on ^15N-labeled EIN or EIC at increasing concentration of small molecule ([Fielding, 2007]). The data were fit using a standard equilibrium dissociation equation ([Granot, 1983]) to obtain the equilibrium dissociation constant (KD) per each analyzed complex (Fig. 2d). This analysis identified six small molecules that bind the EIC domain of EI with low mM affinity (Fig. 2e).
NMR titration experiments were measured at 37 °C in 20 mM Tris (pH 7.4), 100 mM NaCl, 4 mM MgCl2, 2 mM DTT, and 5% D2O. The protein concentration was 400 µM and the concentration of small molecule was varied between 0 and 8 mM. Spectra were processed using NMRPipe ([Delaglio et al., 1995]) and analyzed using the program SPARKY (http://www.cgl.ucsf.edu/home/sparky). Assignment of the ^1H-^15N cross-peaks for the EIC-small molecule complexes was performed by titration experiments, following the change in ^1H-^15N cross-peak positions as a function of added small molecule. Weighted combined ^1H/^15N chemical shift perturbations (ΔH/N) resulting from the addition of increasing concentrations of small molecule were calculated using the following equation ([Mulder et al., 1999]):(1) ΔH/N=ΔδHWH^2+ΔδNWN^2 where WH (=1) and WN (=0.154) are weighting factor for the ^1H and ^15N amide shifts, respectively. ΔδH and ΔδN are the ^1H and ^15N chemical shift differences in ppm, respectively, between free and bound states. The equilibrium dissociation constants (KD) for the EIC-inhibitor complexes were obtained by fitting the changes in ΔH/N with increasing concentration of small molecule using the equation ([Granot, 1983]):(2) ΔH/N=Δ0P+L+KD-P+L-KD^2-4PL/2P where Δ0 is the weighted combined ^1H/^15N chemical shift at saturation, and P and L are the protein and small molecule concentrations, respectively.

Assay [3] addresses T1, full-length EI. Kind of assay: Enzyme kinetic assay of phosphoryl transfer from PEP to HPr by 1H-15N SOFAST NMR. It counts as biochemical, E. coli. On the set-up: phosphoryl transfer from PEP to HPr catalyzed by full-length EI; made in house. The settings on record: 0.0, 1.5 and 6.0 mM compound, 25 °C, pH 7.4. The text has this: In such graphs, the y and x intercepts are equivalent to the inverse of the maximum velocity (1/Vmax) and the negative inverse of the Michaelis constant (−1/Km), respectively.
Vmax,0 (the value of Vmax in the absence of inhibitor) was optimized to maximize the agreement between experimental and simulated data (Fig. 3c).
Enzyme kinetic assay we run by measuring the rate of phosphoryl transfer from PEP to HPr catalyzed by full-length EI by using ^1H-^15N SOFAST NMR spectra as described previously ([Nguyen et al., 2018]). Reaction were run at 25 °C in 20 mM Tris (pH 7.4), 100 mM NaCl, 4 mM MgCl2, 2 mM DTT, and 5% D2O. The assay was performed in triplicate. The enzyme kinetic data measured at different concentration of inhibitor were fit using a completive or mixed inhibition model:(3) Competitiveinhibition-v0=Vmax,0PEP/Km,01+I/KI,S+PEP (4) Mixedinhibition-v0=Vmax,0PEP/Km,01+I/KI,S+PEP1+I/KI,I where v0 is the initial velocity of the enzymatic reaction, [PEP] and [I] are the concentration of substrate and inhibitor, respectively, KI,s is the equilibrium dissociation constant for the enzyme-inhibitor complex, KI,I is the dissociation constant for the interaction between the inhibitor and the enzyme-PEP complex, and Km,0 and Vmax,0 are the Michaelis constant and maximum velocity in the absence of inhibitors, respectively. The seven measured datasets (in the absence of inhibitor, and in the presence of two concentrations of each inhibitor) were fit globally.

Where [4] appears, read: 15N-labeled EIC 400 µM, small molecule 0-8 mM, 37 °C, pH 7.4, read-out: KD.

Regarding `C=C(OP(=O)(O)O)C(=O)O` [PEP, phosphoenolpyruvate], the Km (in general, the substrate concentration at which the rate is half of its maximum) in assay [1] is 350 µM.

For the compound `NCc1ccc(-c2ccc(F)cc2)o1` [compound 1], the Kd in assay [2] (setting [4]) was 2.5 mM. Besides, the “Type of inhibition of EI (Lineweaver-Burk analysis)” value (“Type of inhibition of EI” for short) in assay [3] is listed as “competitive inhibitors”.

`CNCc1[nH]c2ccccc2c1C` [compound 2]: the Kd in assay [2] (setting [4]) is 2.6 mM. The “Type of inhibition of EI” value in assay [3] was “competitive inhibitors”.

Turning to `Cc1nn(Cc2ccc(F)cc2)c(C)c1N` [compound 3], the Kd in assay [2] (setting [4]) came to 3.2 mM; in assay [2] (EIC, residues in the allosteric binding pocket fitted separately, read-out: KD, CSP titration data fitted for the residues in the allosteric binding pocket) it was 3.2 ± 0.2 mM; in assay [2] (EIC, residues in the β3α3 loop fitted separately, read-out: KD, CSP titration data fitted for the residues in the β3α3 loop), 3.5 ± 0.3 mM. For the same compound, in assay [3], the “Type of inhibition of EI” value is recorded as “mixed inhibitor”.

For the compound `NCc1ccc(Br)s1` [compound 4], the Kd in assay [2] (setting [4]) is 2.9 mM.

Take `CC(C)Oc1ccc(Cl)cc1CN` [compound 5]: the Kd in assay [2] (setting [4]) came to 4.3 mM.

As to `CC(CN)Nc1ccc([N+](=O)[O-])cc1` (stereo not drawn) [compound 6], the Kd in assay [2] (setting [4]) turned out to be 4.1 mM.

The record behind these values is PMC7385036, “An allosteric pocket for inhibition of bacterial Enzyme I identified by NMR-based fragment screening” (Journal of Structural Biology: X, 2020).
